Test results published in ChEMBL document CHEMBL1153603, “Phenethyl pyridines with non-polar internal substituents as selective ligands for estrogen receptor beta” (Eur J Med Chem, 2009).

Key:
Estrogen receptor beta [1] = target: T1, Estrogen receptor beta (Homo sapiens, UniProt Q92731); assay: Activity at human ERbeta expressed in HEC1 cells co-transfected with 2ERE-pS2-Luc assessed as relative transcriptional potency by luciferase reporter assay relative to estradiol; format: cell-based; conditions: HEC-1
T1 sequence (Q92731 whole entry): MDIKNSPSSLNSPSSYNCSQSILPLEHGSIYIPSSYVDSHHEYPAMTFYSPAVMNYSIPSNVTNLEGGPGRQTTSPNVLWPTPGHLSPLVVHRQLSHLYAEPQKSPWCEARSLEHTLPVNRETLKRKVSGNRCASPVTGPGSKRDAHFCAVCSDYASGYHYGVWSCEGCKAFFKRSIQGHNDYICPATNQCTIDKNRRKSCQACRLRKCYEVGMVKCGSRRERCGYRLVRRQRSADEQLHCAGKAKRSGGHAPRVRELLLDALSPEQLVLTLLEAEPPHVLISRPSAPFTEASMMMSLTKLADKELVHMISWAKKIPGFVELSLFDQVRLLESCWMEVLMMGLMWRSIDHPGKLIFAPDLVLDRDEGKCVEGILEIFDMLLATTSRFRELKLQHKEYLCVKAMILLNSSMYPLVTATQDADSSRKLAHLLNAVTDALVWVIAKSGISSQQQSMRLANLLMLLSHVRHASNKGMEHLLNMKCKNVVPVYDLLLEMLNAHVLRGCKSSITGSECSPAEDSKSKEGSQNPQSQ

Estrogen receptor beta [2] = target: T1, Estrogen receptor beta; assay: Activity at human ERbeta expressed in HEC1 cells co-transfected with 2ERE-pS2-Luc assessed as relative transcriptional potency by luciferase reporter assay; format: cell-based, HEC-1
Estrogen receptor beta [3] = target: T1, Estrogen receptor beta; assay: Displacement of [3H]estradiol form human ERbeta receptor assessed as relative binding affinity by competitive radiometric binding assay relative to estradiol
Estrogen receptor = target: T2, Estrogen receptor (Homo sapiens, UniProt P03372); assay: Activity at human ERalpha expressed in HEC1 cells co-transfected with 2ERE-pS2-Luc assessed as relative transcriptional potency by luciferase reporter assay; format: cell-based, HEC-1
T2 sequence (P03372 whole entry): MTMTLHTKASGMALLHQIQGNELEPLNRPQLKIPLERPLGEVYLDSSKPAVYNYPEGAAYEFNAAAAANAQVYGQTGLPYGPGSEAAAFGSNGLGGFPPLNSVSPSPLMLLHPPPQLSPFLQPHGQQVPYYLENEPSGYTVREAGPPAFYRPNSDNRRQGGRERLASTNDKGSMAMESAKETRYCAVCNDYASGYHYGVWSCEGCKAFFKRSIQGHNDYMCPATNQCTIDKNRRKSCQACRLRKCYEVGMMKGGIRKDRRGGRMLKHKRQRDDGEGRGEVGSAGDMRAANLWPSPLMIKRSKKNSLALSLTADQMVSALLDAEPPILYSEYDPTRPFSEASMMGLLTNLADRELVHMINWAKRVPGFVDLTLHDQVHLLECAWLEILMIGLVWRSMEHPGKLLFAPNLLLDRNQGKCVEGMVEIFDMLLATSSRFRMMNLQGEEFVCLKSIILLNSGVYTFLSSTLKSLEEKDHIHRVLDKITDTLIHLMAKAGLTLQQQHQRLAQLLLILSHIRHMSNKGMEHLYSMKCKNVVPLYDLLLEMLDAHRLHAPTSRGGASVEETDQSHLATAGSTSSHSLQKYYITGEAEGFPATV

Activity (Estrogen receptor beta [1]) [%] | EC50 (Estrogen receptor beta [2]) [nM] | RBA (Estrogen receptor beta [3]) [%] | EC50 (Estrogen receptor) [nM] | Compound
2.94 | 17 | 0.72 | 65 | CCC(Cc1ccc(O)cc1)c1ccc(O)cn1 (stereo not given)
82 | 0.61 | 7.5 | 0.11 | CC[C@H](c1ccc(O)cn1)[C@@H](CC)c1ccc(O)cc1 (relative stereo)
 |  | 0.15 |  | CCC(Cc1ccc(O)cn1)c1ccc(O)cc1 (stereo not given)
 |  | 0.684 |  | CC[C@H](c1ccc(O)cn1)[C@@H](CC)c1ccccc1
1.9 | 26 | 0.67 | 16 | CC[C@H](c1ccc(O)cc1)[C@H](CC)c1ccc(O)cn1 (relative stereo)
 |  | 0.101 |  | CCCC(Cc1ccc(O)cc1)c1ccc(O)cn1 (stereo not given)
 |  | 0.025 |  | Oc1ccc(CCc2ccc(O)cn2)cc1
 |  | 0.023 |  | CC[C@H](c1ccccc1)[C@H](CC)c1ccc(O)cn1
 |  | 0.119 |  | CC[C@H](c1ccc(O)cn1)[C@H](C)c1ccc(O)cc1 (relative stereo)
0.29 | 170 | 0.17 | 440 | CC(Cc1ccc(O)cn1)c1ccc(O)cc1 (stereo not given)
0.83 | 60 | 0.27 | 330 | CC(Cc1ccc(O)cc1)c1ccc(O)cn1 (stereo not given)

Compound | Activity (Estrogen receptor beta [1]) [%] | EC50 (Estrogen receptor beta [2]) [nM] | RBA (Estrogen receptor beta [3]) [%] | EC50 (Estrogen receptor) [nM]
CC[C@H](c1ccc(O)cn1)[C@@H](C)c1ccc(O)cc1 (relative stereo) | 45 | 1.1 | 5.3 | 0.11
